Reference: the supplement of paper PMC8253809

What was measured:
HABS [1] = astrocyte control; assay: growth inhibition relative to DMSO (0) and positive control (1) (fraction); higher = more growth inhibition
Protocol: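 Paxalisib (GDC0084) x mirdametinib (PD0325901) dose matrix on pHGG cell lines and astrocyte controls, 7 days, adherent 384-well. CellTiter-Glo RLU was normalised (no log2) to fractional activity between DMSO (0) and the positive control (1). Each combination was tested in two plate orientations.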

iAstro [2] = astrocyte control; assay: EC50 (inflection of fitted growth-inhibition curve) (log10 M)
Summary of the method: (§1)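 Viability readout was CellTiter-Glo luminescence, log2-transformed, normalised per plate to % activity between negative (solvent) and positive control wells, then pooled. This followed a 7-day exposure (3 days for iAstro) at 37 °C, 5% CO2 to a 10-point threefold dilution series (mean top concentration 35 μM), pin-tool delivered in triplicate to patient-derived pHGG/DIPG cell lines and astrocyte controls on 1% Geltrex-coated 384-well plates. Three- and four-parameter log-logistic fits were compared, and the one with the lowest AICc supplied EC50 and maximal response (yFin).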

DIPGX37 = H3.3 K27M diffuse intrinsic pontine glioma line; assay: as above
Summary of the method: as §1

SUDIPGXIII = diffuse intrinsic pontine glioma line; assay: as above
Summary of the method: as §1

DIPGX29 = H3.3 K27M diffuse intrinsic pontine glioma line; assay: as above
Summary of the method: as §1

DIPGX9 = diffuse intrinsic pontine glioma line; assay: as above
Summary of the method: as §1

SUDIPGXIX = diffuse intrinsic pontine glioma line; assay: as above
Summary of the method: as §1

HGGX39 = paediatric high-grade glioma line; assay: as above
Summary of the method: as §1

SUDIPGXVII = diffuse intrinsic pontine glioma line; assay: as above
Summary of the method: as §1

DIPGX7 [3] = H3.3 K27M diffuse intrinsic pontine glioma line; assay: as above
Summary of the method: as §1

SUDIPGVI = diffuse intrinsic pontine glioma line; assay: as above
Summary of the method: as §1

HGGX6 = H3.3 G34R paediatric high-grade glioma line; assay: as above
Summary of the method: as §1

SUDIPGXXI = diffuse intrinsic pontine glioma line; assay: as above
Summary of the method: as §1

HGGX42 = H3.3 G34R paediatric high-grade glioma line; assay: as above
Summary of the method: as §1

HGGX2 = paediatric high-grade glioma line; assay: as above
Summary of the method: as §1

SUDIPGIV = diffuse intrinsic pontine glioma line; assay: as above
Summary of the method: as §1

iAstro [4] = assay: maximal growth inhibition (yFin) relative to DMSO / staurosporine; higher = more efficacious
Summary of the method: as §1

DIPGX7 [5] = assay: as above
Summary of the method: as §1

HABS [6] = assay: EC50 (inflection of fitted growth-inhibition curve) (log10 M)
Summary of the method: as §1

HABS [7] = assay: maximal growth inhibition (yFin) relative to DMSO / staurosporine; higher = more efficacious
Summary of the method: as §1

O=C(NOC[C@H](O)CO)c1ccc(F)c(F)c1Nc1ccc(I)cc1F + CC1(C)OCCn2c1nc1c(N3CCOCC3)nc(-c3cnc(N)nc3)nc12 [GDC0084]
growth inhibition, HABS [1]
Settings	compound 1 concentration 0.009766 µM	compound 1 concentration 0.01953 µM	compound 1 concentration 0.03906 µM	compound 1 concentration 0.07812 µM	compound 1 concentration 0.15625 µM	compound 1 concentration 0.3125 µM	compound 1 concentration 0.625 µM	compound 1 concentration 1.25 µM	compound 1 concentration 5 µM	compound 1 concentration 20 µM
compound 2 concentration 0.03906 µM	-0.277	-0.277	-0.363	-0.35	-0.36	-0.157	0.0702	0.206	0.655	0.785
compound 2 concentration 0.07812 µM	-0.0837	-0.115	-0.185	-0.276	-0.182	-0.0585	0.174	0.282	0.686	0.84
compound 2 concentration 0.15625 µM	0.00867	-0.00819	-0.125	-0.152	-0.102	0.0679	0.212	0.368	0.765	0.893
compound 2 concentration 0.3125 µM	0.0584	0.00491	-0.0298	-0.035	-0.004	0.119	0.251	0.39	0.784	0.918
compound 2 concentration 0.625 µM	0.158	0.129	0.116	0.0817	0.117	0.224	0.337	0.487	0.849	0.948
compound 2 concentration 1.25 µM	0.352	0.341	0.305	0.259	0.336	0.387	0.482	0.573	0.912	0.98
compound 2 concentration 5 µM	0.731	0.725	0.702	0.703	0.706	0.689	0.739	0.792	0.974	0.997
compound 2 concentration 20 µM	0.963	0.956	0.951	0.939	0.938	0.927	0.938	0.957	0.998	1

CCN1CCN(Cc2ccc(Nc3ncc(F)c(-c4cc(F)c5nc(C)n(C(C)C)c5c4)n3)nc2)CC1 [ABEMACICLIB]
Settings	EC50 (log10 M)	maximal growth inhibition [%]
DIPGX7 [3]	-6.11	–
DIPGX7 [5]	–	110
DIPGX9	-6.86	–
DIPGX29	-6.78	–
DIPGX37	-6.56	–
HGGX2	-6.84	–
HGGX6	-5.83	–
HGGX39	-6.29	–
HGGX42	-6.74	–
SUDIPGIV	-6.04	–
SUDIPGVI	-6.09	–
SUDIPGXIII	-6.07	–
SUDIPGXIX	-6.26	–
SUDIPGXVII	-6.01	–
SUDIPGXXI	-6.6	–
iAstro [2]	-6.74	–
iAstro [4]	–	59

COCC1(CO)C(=O)C2CCN1CC2 (stereo not given) [APR-246]
Settings	EC50 (log10 M)	maximal growth inhibition [%]
DIPGX7 [3]	-4.79	–
DIPGX7 [5]	–	102
DIPGX9	-4.82	–
DIPGX29	-4.85	–
DIPGX37	-4.79	–
HGGX2	-4.71	–
HGGX6	-4.81	–
HGGX42	-4.72	–
SUDIPGIV	-4.81	–
SUDIPGVI	-4.72	–
SUDIPGXIII	-4.77	–
SUDIPGXIX	-4.78	–
SUDIPGXVII	-4.81	–
SUDIPGXXI	-5.41	–
iAstro [2]	-4.91	–
iAstro [4]	–	90.9

CN1[C@@H]2CC[C@H]1C[C@@H](OC(=O)c1cc(Cl)cc(Cl)c1)C2 [BEMESETRON]
Settings	EC50 (log10 M)	maximal growth inhibition [%]
DIPGX7 [3]	-5.23	–
DIPGX7 [5]	–	90.5
DIPGX9	-4.9	–
DIPGX29	-5.09	–
DIPGX37	-5.32	–
HABS [6]	-4.73	–
HABS [7]	–	20.8
HGGX2	-4.99	–
HGGX6	-4.86	–
HGGX39	-5.05	–
HGGX42	-5.38	–
SUDIPGIV	-4.99	–
SUDIPGXIX	-4.85	–
SUDIPGXVII	-4.9	–
SUDIPGXXI	-5.63	–
iAstro [2]	-5.08	–
iAstro [4]	–	36.1
